Experiments:
Set-up in all cases: scale not given: the % may be the effect or the level left
[1] = tested on: Moloney murine leukemia virus reverse transcriptase; assay: Compound was evaluated for inhibition of against moloney leukemia reverse transcriptase at concentration 0 mg/ml
[2] = tested on: Moloney murine leukemia virus reverse transcriptase; assay: Compound was evaluated for inhibition of against moloney leukemia reverse transcriptase at concentration 0.04 mg/mL
[3] = tested on: Moloney murine leukemia virus reverse transcriptase; assay: Compound was evaluated for inhibition of against moloney leukemia reverse transcriptase at concentration 0.01 mg/mL
[4] = tested on: Moloney murine leukemia virus reverse transcriptase; assay: Compound was evaluated for inhibition of against moloney leukemia reverse transcriptase at concentration 0.08 mg/mL
[5] = tested on: Moloney murine leukemia virus reverse transcriptase; assay: Compound was evaluated for inhibition of against moloney leukemia reverse transcriptase at concentration 0.1 mg/mL
[6] = tested on: Moloney murine leukemia virus reverse transcriptase; assay: Compound was evaluated for inhibition of against moloney leukemia reverse transcriptase at concentration 0.02 mg/mL

Compound	Control [1] [%]	Control [2] [%]	Control [3] [%]	Control [4] [%]	Control [5] [%]	Control [6] [%]
Cn1c2ccccc2c2cc3ccccc3c[n+]21	100	3	48	1	2	30
Cn1c2ccc(Cl)cc2c2cc3ccccc3c[n+]21	100	3	78	1	2	30

Source: ChEMBL document CHEMBL1151503, “Synthesis of novel ellipticine analogues and their inhibition of Moloney leukaemia reverse transcriptase” (Bioorg Med Chem Lett, 1996)
